Assay [1] concerns Staphylococcus aureus (MRSA, ATCC 33591). Put plainly: Mouse MRSA systemic infection model, H&E tissue sections. It counts as in vivo. Particulars: MRSA-infected mice. As for the experimental part: (§1) Establishment of a mouse model of MRSA systemic infection
(§2) (2) Pretreatment: All mice received cyclophosphamide treatment, with the first intraperitoneal injection of 150 mg/kg cyclophosphamide 4 days before infection and the second intraperitoneal injection of 100 mg/kg cyclophosphamide 1 day before infection.
(4) Infection process: Mice were anesthetized with isoflurane and infected by intraperitoneal injection of Staphylococcus aureus (MRSA, ATCC 33591) at a concentration of 10^7 CFU/mL. […]
(2) Processing: • (a) Time point: At the first hour after infection, mice in the experimental group received intraperitoneal injection of 0.5 mL of compounds of different concentrations, while mice in the control group received the same volume of solvent. • (b) Treatment time: […]
Part II: The samples were fixed with 10% formalin buffer, then embedded in paraffin and sectioned. The sections were stained with hematoxylin and eosin (H&E) and then examined under an optical microscope.

The subject of assay [2] is MRSA (ATCC 33591). Put plainly: Intracellular and extracellular ATP concentration. The class given is cell-based, S. aureus. As for the experimental part: (§3) The intracellular and extracellular ATP levels refer to the concentration of ATP inside and outside the cell. Under normal physiological conditions, ATP is mainly produced inside the cell and released outside the cell when needed. This dynamic change is very important for maintaining normal biological homeostasis.
(§4) Determine the intracellular ATP concentration using the ATP assay kit:
(§5) Secondly, the bacterial suspension was treated with different concentrations of compound i, and a blank control group was set up. Next, the samples were incubated at 37° C. and the cells were lysed by ultrasound to extract ATP. After that, the supernatant was collected by high-speed centrifugation and ATP detection was performed, which involved adding the detection solution and compound to a 96-well plate and using a reader to measure the light intensity. Finally, data analysis and statistics were performed to evaluate the effects of the compound by comparing the ATP levels of different treatment groups.

Assay [3] deals with E. coli (ATCC 25922). Put plainly: Intracellular and extracellular ATP concentration. It counts as cell-based. As for the experimental part:
as §3, §4, §5

Assay [4] concerns E. coli (ATCC 25922). Kind of assay: Bacterial intracellular pH (cFDA-SE). The class given is cell-based. Particulars: control 6.16±0.10. As for the experimental part: (§6) The definition of pHin is based on the ratio of the pH-sensitive wavelength (490 nm) to the pH-insensitive wavelength (440 nm).
(§7) First, prepare fluorescently labeled bacterial cells. MRSA and E. coli bacteria were removed from the culture in the logarithmic growth phase, and after high-speed centrifugation and washing with HEPES buffer, the bacteria were labeled with carboxyfluorescein succinimidyl ester (cFDA-SE), and the fluorescent dye was bound to the cells by incubation.
(§8) Next, PBS buffer was used to wash and remove the unbound fluorescent dye, and then the cells were suspended in the buffer and stored in a low-temperature environment. The second step was to determine the intracellular pH. The fluorescently labeled cell suspension was added to a test tube containing different concentrations of compound i and transferred to a black opaque 96-well plate for incubation. The fluorescence value was measured at specific excitation and emission wavelengths using a full-wavelength scanning multifunctional reader to calculate the intracellular pH. The last step is the calibration of the intracellular pH. The standard curve was determined using buffer solutions with different pH values to ensure accurate determination of the pH value inside the bacterial cells. […]

The test system of assay [5] is E. coli (ATCC 25922). Put plainly: Biofilm formation, crystal violet staining. The class given is cell-based. As for the experimental part:
Quantification of biofilm using crystal violet staining:
MRSA and E. coli cells were first adjusted to the logarithmic growth phase and diluted to […]. […] A blank control group without compound addition was set up. After incubation, the suspension was discarded and washed three times with 10 mM PBS buffer, and the biofilm was fixed with methanol for 15 minutes. After removing the methanol, 200 μL of 0.1% crystal violet was added to each well for staining for 30 minutes, and then the crystal violet was discarded and washed again with PBS three times. After the well plate was dried, 200 μL of 95% ethanol was added to each well to dissolve the fixed dye. […] This process allows for quantitative analysis of the ability of different concentrations of compound i to form biofilms.

The subject of assay [6] is Staphylococcus aureus (MRSA, ATCC 33591). Put plainly: Mouse MRSA systemic infection model, survival rate. The class given is in vivo. Particulars: MRSA-infected mice, 5, 10, 20 mg/kg single intraperitoneal injection 1 hour after infection, 7-day survival. As for the experimental part: as §1
(1) Solution preparation and bacterial activation: Reference Example 15.
as §2
(3) Control group treatment: Mice in the blank control group received intraperitoneal injection of 0.9% saline.
(4) Infection process: Mice were anesthetized with isoflurane and infected by intraperitoneal injection of Staphylococcus aureus (MRSA, ATCC 33591) at a concentration of 10^7 CFU/mL.
(1) Experimental groups: The doses of compound i and valnemulin were 5, 10, and 20 mg/kg, respectively (the solvent was dimethyl sulfoxide: Tween-80: sterile water=1:0.5:9.5);
A model control group (administered with a solvent after infection with bacteria) and a blank control group (administered with a solvent only without infection with bacteria) were set up, with 10 mice in each group, half of which were male and half were female.
(2) Time point: Intraperitoneal injection was performed in the experimental group mice at 1 hour after infection.
(3) Therapeutic dose: The mice in the experimental groups received intraperitoneal injection of 0.5 mL of compound i and valnemulin at different concentrations. […]

Assay [7] concerns MRSA (ATCC 33591). Put plainly: Bacterial intracellular pH (cFDA-SE). It counts as cell-based, S. aureus. Particulars: control 6.57±0.10. As for the experimental part:
as §6, §7, §8

Setting [8] is: 5 mg/kg compound i, intraperitoneal.

The source of these data is US12275734B1, “Pleuromutilin onium salt derivative containing a 3H-imidazo[4,5-c]pyridine side chain, and a preparation method and application thereof” (SHAANXI UNIVERSITY OF SCIENCE AND TECHNOLOGY, priority 2024, dated 2025).

As for `C=C[C@]1(C)C[C@@H](OC(=O)CSc2nc3cc[n+](Cc4ccc(C)cc4)cc3[nH]2)[C@]2(C)[C@H](C)CC[C@]3(CCC(=O)[C@H]32)[C@@H](C)[C@@H]1O` [Compound i, 5-(4-methylbenzyl)-2-((2-(((3aR,4R,5R,7S,8S,9R,9aS,12R)-8-hydroxy-4,7,9,12-tetramethyl-3-oxo-7-vinyldecahydro-4,9a-propancyclopenta[8]cyclo-5-yl)oxy)-2-oxoethyl)thio)-3H-imidazo[4,5-C]pyridine-5-ium], the “kidney H&E histology” value in assay [1] (setting [8]) is “returned to a normal state”. The “lung H&E histology” value in assay [1] (setting [8]) was “no obvious pathological changes”. For the same compound, the “spleen H&E histology” value in assay [1] (5 mg/kg, after 7 days of treatment) is “immune response was weakened”. Also, the “extracellular fluorescence intensity (ATP) increased by” value was 3.27 times in the assay on MRSA (ATCC 33591) [2] (1×MIC), 2.28 times with MRSA (ATCC 33591) [2] (2×MIC), 4.34 times with E. coli (ATCC 25922) [3] (1×MIC) and 5.35 times with E. coli (ATCC 25922) [3] (2×MIC). The “intracellular fluorescence intensity (ATP) decreased by” value in the assay with MRSA (ATCC 33591) [2] (1×MIC) is recorded as 51.92%; in the assay with MRSA (ATCC 33591) [2] (2×MIC), 74.76%; in the assay with E. coli (ATCC 25922) [3] (1×MIC), 50.75%; with E. coli (ATCC 25922) [3] (2×MIC) it was 67.87%. For the same compound, the “intracellular pH after treatment” value is reported as 4.79±0.10 in the assay with E. coli (ATCC 25922) [4] (1×MIC), 3.58±0.10 in the assay with E. coli (ATCC 25922) [4] (2×MIC), 4.66±0.12 in the assay with MRSA (ATCC 33591) [7] (1×MIC) and 2.96±0.09 in the assay on MRSA (ATCC 33591) [7] (2×MIC). Also, the “inhibition rate of biofilm formation” value in the assay with E. coli (ATCC 25922) [5] (1×MIC) turned out to be 60.47%; with E. coli (ATCC 25922) [5] (8×MIC), 94.54%. Moreover, the “survival rate of mice” value in assay [6] is “significantly higher than the survival rate of mice given warnemulin”.
